ChEMBL document CHEMBL1125556, “Fluoroquinolones: relationships between structural variations, mammalian cell cytotoxicity, and antimicrobial activity” (J Med Chem, 1992)
In brackets after ≈: the same amount, converted by molar mass.

Legend:
V79 = experiment: Mammalian cell cytotoxicity test in chinese hamster V79 cells (clonogenic cytotoxicity); assay type: functional, cell-based
[1] = Antibacterial activity against five Gram-negative bacteria; assay type: functional
[2] = Cricetulus griseus, V79, read-out: IC50

Structure (SMILES)	IC50 (V79; [2]) [µg/mL]	MIC ([1]; read-out: MIC) [µg/mL]	IC50 (V79; v79) [µg/mL]	MIC [1] [µg/mL]
CCNCC1CCN(c2c(F)cc3c(=O)c(C(=O)O)cn(C4CC4)c3c2OC)C1 (stereo in doubt; 26d)	22 (≈ 54.5 µM)	0.26 (≈ 0.644 µM)		
COc1c(N2CCC(C)(CN)C2)c(F)cc2c(=O)c(C(=O)O)cn(C3CC3)c12 (stereo unspecified)	38 (≈ 97.6 µM)	0.26 (≈ 0.668 µM)		
CC1(CN)CCN(c2c(F)cc3c(=O)c(C(=O)O)cn(C4CC4)c3c2Cl)C1 (stereo unspecified)	8 (≈ 20.3 µM)	0.07 (≈ 0.178 µM)		
COc1c(N2CCC(N)C2)c(F)c(N)c2c(=O)c(C(=O)O)cn(C3CC3)c12 (stereo unspecified)	100 (≈ 266 µM)	0.11 (≈ 0.292 µM)		
Cc1c(F)c(N2CCC(N)C2)cc2c1c(=O)c(C(=O)O)cn2C1CC1 (stereo unspecified)	14 (≈ 40.5 µM)	0.09 (≈ 0.261 µM)		
NC1CCN(c2c(F)cc3c(=O)c(C(=O)O)cn(C4CC4)c3c2Cl)C1 (stereo in doubt; 46) [CLINAFLOXACIN]			26 (≈ 71.1 µM)	0.03 (≈ 0.082 µM)
NC1CCN(c2c(F)cc3c(=O)c(C(=O)O)cn(C4CC4)c3c2C(F)(F)F)C1 (stereo in doubt; 24e)			300 (≈ 751 µM)	0.2 (≈ 0.501 µM)
CNCC1(C)CCN(c2nc3c(cc2F)c(=O)c(C(=O)O)cn3C2CC2)C1 (stereo unspecified)	58 (≈ 155 µM)	0.6 (≈ 1.6 µM)		
CC1CN(c2c(F)cc3c(=O)c(C(=O)O)cn(C4CC4)c3c2Cl)CC(C)N1 (stereo unspecified)	140 (≈ 355 µM)	0.23 (≈ 0.584 µM)		
CCn1cc(C(=O)O)c(=O)c2cc(F)c(N3CCNCC3)cc21 [NORFLOXACIN]	> 500	0.06 (≈ 0.188 µM)		
CCNCC1CCN(c2cc3c(cc2F)c(=O)c(C(=O)O)cn3C2CC2)C1 (stereo in doubt; 26a)	160 (≈ 428 µM)	0.46 (≈ 1.23 µM)		
CCNCC1CCN(c2c(F)cc3c(=O)c(C(=O)O)cn(CCF)c3c2F)C1 (stereo unspecified)	> 500	0.4 (≈ 1.01 µM)		
NC1CCCN(c2nc3c(cc2F)c(=O)c(C(=O)O)cn3C2CC2)C1 (stereo unspecified)	100 (≈ 289 µM)	0.4 (≈ 1.15 µM)		
NCC1CCN(c2c(F)cc3c(=O)c(C(=O)O)cn(C4CC4)c3c2C(F)(F)F)C1 (stereo unspecified)	38 (≈ 91.9 µM)	0.52 (≈ 1.26 µM)		
NC1CCN(c2c(F)cc3c(=O)c(C(=O)O)cn(-c4ccc(F)cc4F)c3c2Cl)C1 (stereo unspecified)	89 (≈ 203 µM)	0.23 (≈ 0.525 µM)		
CC1CN(c2c(F)cc3c(=O)c(C(=O)O)cn(C4CC4)c3c2Cl)CCN1 (stereo unspecified)	45 (≈ 118 µM)	0.08 (≈ 0.211 µM)		
CCNCC1CCN(c2c(F)cc3c(=O)c(C(=O)O)cn(C4CC4)c3c2N)C1 (stereo unspecified)	290 (≈ 747 µM)	0.91 (≈ 2.34 µM)		
CCc1c(F)c(N2CCC(N)C2)cc2c1c(=O)c(C(=O)O)cn2C1CC1 (stereo unspecified)	46 (≈ 128 µM)	1.81 (≈ 5.04 µM)		
NC1CCN(c2c(F)cc3c(=O)c(C(=O)O)cn(C4CC4)c3c2F)C1 (stereo in doubt; 21)	30 (≈ 85.9 µM)	0.04 (≈ 0.115 µM)		
CC1CN(c2c(F)cc3c(=O)c(C(=O)O)cn(-c4ccc(F)cc4F)c3c2Cl)CCN1 (stereo unspecified)	> 500	2.07 (≈ 4.58 µM)		
CCNCC1CCN(c2c(F)c(F)c3c(=O)c(C(=O)O)cn(C4CC4)c3c2F)C1 (stereo unspecified)	46 (≈ 112 µM)	0.56 (≈ 1.37 µM)		

Structure (SMILES)	IC50 (V79; [2]) [µg/mL]	MIC ([1]; read-out: MIC) [µg/mL]	IC50 (V79; v79) [µg/mL]	MIC [1] [µg/mL]
CCNCC1CCN(c2c(F)cc3c(=O)c(C(=O)O)cn(C4CC4)c3c2C(F)(F)F)C1 (stereo unspecified)	120 (≈ 272 µM)	0.6 (≈ 1.36 µM)		
CC1CN(c2c(F)cc3c(=O)c(C(=O)O)cn(-c4ccc(F)cc4F)c3c2C(F)(F)F)CCN1 (stereo unspecified)	> 500	4.14 (≈ 8.53 µM)		
NC1CCCN(c2c(F)cc3c(=O)c(C(=O)O)cn(C4CC4)c3c2F)C1 (stereo unspecified)	53 (≈ 146 µM)	0.13 (≈ 0.358 µM)		
NC1CCN(c2nc3c(cc2F)c(=O)c(C(=O)O)cn3C2CC2)C1 (stereo unspecified)	98 (≈ 295 µM)	0.03 (≈ 0.0903 µM)		
CC1CN(c2nc3c(cc2F)c(=O)c(C(=O)O)cn3C2CC2)CC(C)N1 (stereo unspecified)	250 (≈ 694 µM)	0.17 (≈ 0.472 µM)		
CCn1cc(C(=O)O)c(=O)c2cc(F)c(N3CCC(N)C3)c(F)c21 (stereo unspecified)	300 (≈ 889 µM)	0.12 (≈ 0.356 µM)		
CCNCC1CCN(c2cc3c(cc2F)c(=O)c(C(=O)O)cn3NC)C1 (stereo unspecified)	> 500	12.5 (≈ 34.5 µM)		
CC1(N)CCN(c2c(F)cc3c(=O)c(C(=O)O)cn(C4CC4)c3c2C(F)(F)F)C1 (stereo unspecified)	110 (≈ 266 µM)	1 (≈ 2.42 µM)		
CCNCC1CCN(c2c(F)cc3c(=O)c(C(=O)O)cn(CC)c3c2F)C1 (stereo unspecified) [MERAFLOXACIN]	160 (≈ 422 µM)	0.2 (≈ 0.527 µM)		
O=C(O)c1cn(C2CC2)c2c(Cl)c(N3CCCC3)c(F)cc2c1=O	150 (≈ 428 µM)	0.1 (≈ 0.285 µM)		
NC1CCN(c2c(F)cc3c(=O)c(C(=O)O)cn(C4CC4)c3c2Cl)C1 (stereo in doubt; 24c) [CLINAFLOXACIN]	26 (≈ 71.1 µM)	0.03 (≈ 0.082 µM)		
NC1CCCN(c2c(F)cc3c(=O)c(C(=O)O)cn(C4CC4)c3c2C(F)(F)F)C1 (stereo unspecified)	> 500	0.52 (≈ 1.26 µM)		
COc1c(F)c(N2CCC(N)C2)c(Cl)c2c1c(=O)c(C(=O)O)cn2C1CC1 (stereo unspecified)	> 500	2.08 (≈ 5.25 µM)		
COc1c(N2CCCC(N)C2)c(F)cc2c(=O)c(C(=O)O)cn(C3CC3)c12 (stereo unspecified)	69 (≈ 184 µM)	0.23 (≈ 0.613 µM)		
CCNCC1CCN(c2c(F)cc3c(=O)c(C(=O)O)cn(C4CC4)c3c2[N+](=O)[O-])C1 (stereo unspecified)	67 (≈ 160 µM)	1.05 (≈ 2.51 µM)		
CC1CN(c2c(F)cc3c(=O)c(C(=O)O)cn(C4CC4)c3c2F)CC(C)N1 (stereo unspecified)	150 (≈ 397 µM)	0.05 (≈ 0.132 µM)		
CCNCC1CCN(c2cc3c(cc2F)c(=O)c(C(=O)O)cn3-c2ccc(F)cc2F)C1 (stereo in doubt; 36b)	190 (≈ 427 µM)	0.8 (≈ 1.8 µM)		
O=C(O)c1cn(C2CC2)c2c(Cl)c(N3CCNCC3)c(F)cc2c1=O	43 (≈ 118 µM)	0.07 (≈ 0.191 µM)		
NC1CCN(c2c(F)cc3c(=O)c(C(=O)O)cn(C4CC4)c3c2F)CC1	23 (≈ 63.3 µM)	0.2 (≈ 0.55 µM)		
CCNCC1CCN(c2c(F)cc3c(=O)c(C(=O)O)cn(C4CC4)c3c2F)C1 (stereo in doubt; 12) [PD-117558]	11 (≈ 28.1 µM)	0.05 (≈ 0.128 µM)		
COc1c(N2CCC(N)C2)c(F)cc2c(=O)c(C(=O)O)cn(C3CC3)c12 (stereo in doubt; 24d)		0.07 (≈ 0.194 µM)	45 (≈ 125 µM)	

Structure (SMILES)	IC50 (V79; [2]) [µg/mL]	MIC ([1]; read-out: MIC) [µg/mL]	IC50 (V79; v79) [µg/mL]	MIC [1] [µg/mL]
CCNCC1CCN(c2cc3c(cc2F)c(=O)c(C(=O)O)cn3CC)C1 (stereo unspecified)	310 (≈ 858 µM)	0.56 (≈ 1.55 µM)		
NC1CCN(c2c(F)c(O)c3c(=O)c(C(=O)O)cn(C4CC4)c3c2F)C1 (stereo unspecified)	43 (≈ 118 µM)	0.03 (≈ 0.0821 µM)		
Nc1c(F)c(N2CCC(N)C2)c(F)c2c1c(=O)c(C(=O)O)cn2C1CC1 (stereo unspecified)	15 (≈ 41.2 µM)	0.01 (≈ 0.0274 µM)		
O=C(O)c1cn(C2CC2)c2cc(N3CCCC3)c(F)cc2c1=O	38 (≈ 120 µM)	0.2 (≈ 0.632 µM)		
Nc1c(F)c(N2CCC(N)C2)c(Cl)c2c1c(=O)c(C(=O)O)cn2C1CC1 (stereo unspecified)	59 (≈ 155 µM)	0.08 (≈ 0.21 µM)		
COc1c(N2CCC(N)C2)c(F)cc2c(=O)c(C(=O)O)cn(C3CC3)c12 (stereo in doubt; 47)			44 (≈ 122 µM)	0.07 (≈ 0.194 µM)
CCNCC1CCN(c2c(F)cc3c(=O)c(C(=O)O)cn(CC(F)(F)F)c3c2F)C1 (stereo unspecified)	58 (≈ 134 µM)	1.82 (≈ 4.2 µM)		
NC1CCN(c2c(F)cc3c(=O)c(C(=O)O)cn(C4CC4)c3c2Cl)CC1	18 (≈ 47.4 µM)	0.08 (≈ 0.211 µM)		
CCNCC1CCN(c2cc3c(c(C)c2F)c(=O)c(C(=O)O)cn3C2CC2)C1 (stereo unspecified)	42 (≈ 108 µM)	0.6 (≈ 1.55 µM)		
CCNCC1CCN(c2c(F)cc3c(=O)c(C(=O)O)cn(NC)c3c2F)C1 (stereo unspecified)	> 500	0.26 (≈ 0.684 µM)		
NC1CCN(c2c(F)cc3c(=O)c(C(=O)O)cn(C4CC4)c3c2F)C1 (stereo in doubt; 24b)			30 (≈ 85.9 µM)	0.04 (≈ 0.115 µM)
CCNCC1CCN(c2c(F)cc3c(=O)c(C(=O)O)cn(C4CC4)c3c2Cl)C1 (stereo in doubt; 26c)		0.14 (≈ 0.343 µM)	11 (≈ 27 µM)	
CCNCC1CCN(c2c(F)c(C)c3c(=O)c(C(=O)O)cn(C4CC4)c3c2F)C1 (stereo unspecified)	9 (≈ 22.2 µM)	0.28 (≈ 0.691 µM)		
CSc1c(F)c(N2CCC(N)C2)cc2c1c(=O)c(C(=O)O)cn2C1CC1 (stereo unspecified)	92 (≈ 244 µM)	> 1.58		
CSc1c(N2CCC(N)C2)c(F)cc2c(=O)c(C(=O)O)cn(C3CC3)c12 (stereo unspecified)	31 (≈ 82.1 µM)	0.2 (≈ 0.53 µM)		
COc1c(N2CCC(C)(N)C2)c(F)cc2c(=O)c(C(=O)O)cn(-c3ccc(F)cc3F)c12 (stereo unspecified)	250 (≈ 559 µM)	0.46 (≈ 1.03 µM)		
NC1CCN(c2c(F)cc3c(=O)c(C(=O)O)cn(C4CC4)c3c2[N+](=O)[O-])C1 (stereo unspecified)	69 (≈ 183 µM)	0.46 (≈ 1.22 µM)		
NC1CCN(c2cc3c(cc2F)c(=O)c(C(=O)O)cn3C2CC2)CC1	230 (≈ 666 µM)	0.26 (≈ 0.753 µM)		
CCNCC1CCN(c2c(F)cc3c(=O)c(C(=O)O)cn(C4CC4)c3c2OC)C1 (stereo in doubt; 68)			22 (≈ 54.5 µM)	0.26 (≈ 0.644 µM)
CC1(CN)CCN(c2c(F)cc3c(=O)c(C(=O)O)cn(C4CC4)c3c2C(F)(F)F)C1 (stereo unspecified)	110 (≈ 257 µM)	1 (≈ 2.34 µM)		
CC1(CN)CCN(c2c(F)cc3c(=O)c(C(=O)O)cn(C4CC4)c3c2F)C1 (stereo unspecified)	8 (≈ 21.2 µM)	0.13 (≈ 0.344 µM)		
